# Values of other authors, collected in patent US20260174646A1, “Topical detergent composition comprising ascorbyl glucoside and ascorbyl palmitat” (Mitochon S.r.l., priority 2022, published 2026).
structure (smiles),measurement,setting,value
"CCCCCCCCCCCCCCCC(=O)OC[C@H](O)[C@H]1OC(=O)C(O)=C1O [ascorbyl palmitate, Ascorbyl palmitate]",ability to release ascorbic acid into the epidermis,"refs. [8,9]",reduced ability to release ascorbic acid into the epidermis
same,tissue levels of ascorbic acid when applied to the skin,"topical application, ref. [7]",incapable of increasing tissue levels of ascorbic acid
